From patent US11464788B2, “Oligomer-corticosteroid conjugates” (Nektar Therapeutics, priority 2007, dated 2022)
Where two headings read alike, the source gives them in different places.

Key:
glucocorticoid receptors = target: T1, glucocorticoid receptors (Rattus norvegicus, UniProt P06536); test: Glucocorticoid binding assay (competitive binding with [6,7-3H]triamcinolone acetonide); details: displacement of [6,7-3H]triamcinolone acetonide; glucocorticoid receptors from rat brains; 50 mM KH2PO4 pH 7.4, 0° C., 16 hours
T1 sequence (P06536 1-795): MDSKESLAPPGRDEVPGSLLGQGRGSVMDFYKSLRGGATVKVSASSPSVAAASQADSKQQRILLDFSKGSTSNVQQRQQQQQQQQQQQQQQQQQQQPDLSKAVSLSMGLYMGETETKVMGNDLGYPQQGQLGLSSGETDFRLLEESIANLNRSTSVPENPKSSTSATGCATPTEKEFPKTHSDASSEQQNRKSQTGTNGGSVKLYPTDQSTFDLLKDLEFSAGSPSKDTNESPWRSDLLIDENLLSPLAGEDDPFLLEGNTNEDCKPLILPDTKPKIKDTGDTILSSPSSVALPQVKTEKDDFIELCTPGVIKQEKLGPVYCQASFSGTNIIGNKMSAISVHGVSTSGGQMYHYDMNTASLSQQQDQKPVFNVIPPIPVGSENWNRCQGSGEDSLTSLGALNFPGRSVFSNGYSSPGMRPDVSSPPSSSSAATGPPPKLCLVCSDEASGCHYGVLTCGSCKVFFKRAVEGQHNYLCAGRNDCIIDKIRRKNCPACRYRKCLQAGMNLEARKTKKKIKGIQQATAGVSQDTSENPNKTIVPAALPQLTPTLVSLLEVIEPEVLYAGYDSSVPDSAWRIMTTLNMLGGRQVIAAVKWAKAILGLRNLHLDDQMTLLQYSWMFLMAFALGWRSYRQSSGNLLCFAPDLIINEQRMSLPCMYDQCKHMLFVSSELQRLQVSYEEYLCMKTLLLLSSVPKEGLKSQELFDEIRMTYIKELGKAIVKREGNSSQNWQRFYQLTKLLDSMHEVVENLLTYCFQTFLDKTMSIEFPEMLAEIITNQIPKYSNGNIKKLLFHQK
Protocol: The assay was used to determine whether the tested compounds bound to the glucocorticoid binding site and is based on procedures set forth in the literature. […] Int. […] Briefly, using competitive binding of with the radioligand “[6,7-^3H]triamcinolone acetonide” (30-50 Cl/mmol), reactions were carried out in 50 mM KH2PO4 (pH 7.4) containing 10 mM sodium molybdate and 10 mM α-monothioglycerol at 0° C. for 16 hours. The glucocorticoid receptors were obtained from rat brains. The reactions were terminated by rapid vacuum filtration onto glass fiber filters. Radioactively trapped onto the filters is determined and compared to control values. […] A higher IC50 value reflects a weaker binding affinity.

| Compound | stability of the drug (pH 7.4) | IC50 (glucocorticoid receptors) | further results |
| --- | --- | --- | --- |
| C[C@]12CCC(=O)C=C1CC[C@@H]1[C@@H]2C(=O)C[C@@]2(C)[C@H]1CC[C@]2(O)C(=O)CO [Cortisone] | many decomposed impurities | – | stability of the drug (pH 5.5): stable |
| COCCOCCOCCOCCOCCOCCOCCOC(=O)NN=C1C=C2CCC3C(C(=O)CC4(C)C3CCC4(O)C(=O)CO)C2(C)CC1 (centres unmarked) [mPEG7-Cortisone] | – | 3440 nM | cortisone release from the conjugate (hydrolysis) (pH 5.5): able to release cortisone clearly; cortisone release from the conjugate (hydrolysis) (pH 7.4): much slower than that at pH 5.5 |
| C[C@]12CCC(=O)C=C1CC[C@@H]1[C@@H]2[C@@H](O)C[C@@]2(C)[C@H]1CC[C@]2(O)C(=O)CO [Hydrocortisone] | much more stable than cortisone | – | – |
| CC1(C)O[C@@H]2C[C@H]3[C@@H]4CCC5=CC(=O)C=C[C@]5(C)[C@@]4(F)[C@@H](O)C[C@]3(C)[C@]2(C(=O)CO)O1 [Triamcinolone Acetonide] | – | 1.21 nM | – |
| COCCOCCOCCOCCOCCOCCOCCOC(=O)NN=C1C=C2CCC3C(C(O)CC4(C)C3CCC4(O)C(=O)CO)C2(C)CC1 (centres unmarked) [mPEG7-Hydrocortisone] | – | 3.93 nM | – |
